From patent US4511724A, “5-(Pyrrol-2-oyl)-1,2-dihydro-3H-pyrrolo [1,2-a]pyrrole derivatives as anti-inflammatory and analgesic agents” (Merck & Co., Inc., priority 1982, dated 1985)

How the values were obtained:
in vivo = experiment: in vivo; set-up: species or system Rats (Sprague-Dawley); conditions: rat, po
Protocol: The GHLF test is conducted according to the following procedure:
Rats (Sprague-Dawley, Males, 120-180 gm) were fasted overnight and dosed orally with drug suspended in 0.5% methylcellulose. The drug concentration was adjusted so that each animal received 1.0 ml/100 gm body weight. Four hours later the animals were killed by asphixiation in carbon dioxide, the stomachs removed, cut open and everted. The mucosal lining was washed and examined under 3X magnification. The lesions are indentified as perforations of the gastric mucosa many of which perforate right through the wall of the stomach.
The results are expressed in two ways, the average number of lesions per stomach, and the number of animals in the group showing at least one lesion.

[1] = system: phenylbenzquinone (PBQ) writhing; experiment: Inhibition of phenylbenzquinone (PBQ) writhing in mice; format: in vivo, mice (C.B.L., CD1); conditions: Mus musculus, oral, PBQ 2.0 mg/kg i.p.
Protocol: b. Inhibition of phenylbenzquinone (PBQ) writhing in mice:
Groups of 10 male mice (C.B.L., CD1, 18-22 grams) were food deprived overnight prior to the experiments. Test substances, suspended or dissolved in 1% methylcellulose, were administered orally (0.1 ml/10 grams body weight) at various times prior to administration of PBQ (2.0 mg/kg i.p.). The mice were placed in individual boxes and observed for 10 minutes (5 to 15 minutes after PBQ). The number of "writhes" (abdominal contraction, lordosis and hindlimb extension) for each animal was recorded and the group means and standard errors were calculated. The means obtained from drug treated groups were compared with the vehicle control mean values and percent inhibition of writhing was calculated as follows: [formula]

adjuvant arthritis = experiment: Rat adjuvant arthritis test (adjuvant); format: in vivo; conditions: for ED50: rat adjuvant arthritis
From the text: c. Rat adjuvant arthritis test (adjuvant)
The test was done in accordance with procedures well-known in the art (see: C. A. Winter, Arthr. Rheum 9, 394-404 (1966).

With `CCOC(=O)C1CCn2c1cc(C)c2C(=O)c1cccn1C` (centres unmarked) [Prior Art Compound, reference compound] the TD50 at 4 h (in vivo) was 10 mg/kg, the ED50 [1] was 1 mg/kg and the “protection from bone and cartilage destruction” value (adjuvant arthritis; at 30 mg/kg) was “No protection”. The ED50 (adjuvant arthritis) was 30 mg/kg.

With `CCOC(=O)C1CCn2c1cc(C)c2C(=O)c1ccc(SC)n1C` (centres unmarked) [RZ = CH3 S, R^4 = C2 H5, ethyl 5-(1-methyl-5-methylthio-2-pyrroyl)-1,2-dihydro-6-methyl-3H-pyrrolo-[1,2-a]pyrrole-1-carboxylate] the TD50 at 4 h (in vivo) was 90 mg/kg, the ED50 [1] was 0.17 mg/kg and the “protection from bone and cartilage destruction” value (adjuvant arthritis; at 10 mg/kg) was “Protection”. The ED50 (adjuvant arthritis) was 7.5 mg/kg.

Compound `CSc1ccc(C(=O)c2c(C)cc3n2CCC3C(=O)O)n1C` (centres unmarked) [RZ = CH3 S, R^4 = H, 5-(1-methyl-5-methylthio-2-pyrroyl)-1,2-dihydro-6-methyl-3H-pyrrolo-[1,2-a]pyrrole-1-carboxylic acid] has a TD50 at 4 h (in vivo) of 15 mg/kg.

In the case of `Cc1cc2n(c1C(=O)c1ccc(Cl)n1C)CCC2C(=O)O` (centres unmarked) [RZ = Cl, R^4 = H, 5-(1-methyl-5-chloro-2-pyrroyl)-1,2-dihydro-6-methyl-3H-pyrrolo[1,2-a]pyrrole-1-carboxylic acid], the TD50 at 4 h (in vivo) is reported as 15 mg/kg and the ED50 [1] is reported as 2.1 mg/kg.
